Drawing on paper PMC9635472, “Design, synthesis, and biological evaluation of novel ciprofloxacin derivatives as potential anticancer agents targeting topoisomerase II enzyme” (Journal of Enzyme Inhibition and Medicinal Chemistry, 2022), this text covers IC50 and melting point for 15 compounds.

Data set [1] deals with Human bladder cancer (T-24) cell line. Kind of data set: MTT cell viability assay, T-24 cells. Format: cell-based. As to conditions: bladder cancer cell line T-24, treatment for 24 h (table title), means of three experiments, read-out: IC50 (μM* ± SD) T-24. The procedure: (§1) Human bladder cancer (T-24) and human prostate carcinoma (PC-3) cell lines were obtained from American Type Culture Collection (ATCC; Manassas, VA USA). Cells were maintained in Dulbecco’s modified Eagle medium with 10% foetal bovine serum at 37 °C and 5% CO2. All the operations were carried out under strict aseptic conditions. The culture medium was removed to a centrifuge tube containing 9.0 ml complete culture medium and spanned at approximately 125 × g for 5 to 7 min. The cell layer was rinsed with 0.25% (w/v) trypsin- […] EDTA solution by which all traces of serum-containing inhibitor were removed. Trypsin EDTA solution 2.0 to 3.0 ml was added to a flask and cells were monitored under an inverted microscope until the cell layer was dispersed (usually within 5–15 min). A complete growth medium was added (6.0–8.0 ml), and cells were aspirated by gentle pipetting. The cell pellet was suspended with the recommended complete medium and dispensed into a 75 cm^2 culture flask. The culture vessel containing the complete growth medium was placed in the incubator for 24 h to at 37 °C. The cells were treated with different concentrations (0.39, 1.60, 6.25, 25, and 100 μg/ml) of each of the test compounds or doxorubicin, […], then the plates were examined under the inverted microscope and finally the MTT assay was carried out.
(§2) Anti-cancer activity of the newly synthesised compounds was evaluated in vitro against both T-24 and PC-3 cell lines according to the MTT method. Cells were seeded into 96-well plates (flat bottom) at a density of 10 000 cells/well for 24 h. The vial of MTT to be used was reconstituted with 3 ml of medium or balanced salt solution without phenol red and serum. then, a reconstituted MTT vial was added in an amount equal to 10% of the culture medium volume. Cultures were incubated for 2–4 h depending on the cell type and maximum cell density and removed from the incubator and the formazan crystals were dissolved via the addition of an amount of MTT solubilisation solution (M-8910) equal to the original culture medium volume. ROBONIK P2000 spectrophotometer at a wavelength of 570 nm was used to measure the colour intensity spectrophotometrically. The survival curve of both T-24 and PC-3 cells was obtained by plotting the percentage of surviving cells against the drug after each compound. The IC50 value for each test compound and the reference drug doxorubicin was calculated.
(§3) In this study, all the newly synthesised CP derivatives were subjected to anticancer activity evaluation against bladder (T-24) and prostate cancer (PC-3) cell lines. The compounds were evaluated for their activity using 5 doses determinations (100 μg/ml, 25 μg/ml, 6.25 μg/ml, 1.60 μg/ml, and 0.39 μg/ml). Their half-maximal inhibitory concentration (IC50) values were measured. Doxorubicin was chosen as a reference anticancer drug[65].
In general terms: Tetrazolium dyes change colour on reduction, which living cells bring about.

The test system of data set [2] is human prostate carcinoma (PC-3) cell line. Description: MTT cell viability assay, PC-3 cells. The following applies: prostate cancer cell line PC-3, treatment for 24 h (table title), means of three experiments, read-out: IC50 (μM* ± SD) PC-3. The data set is classed as cell-based. The method, then: as §1, §2, §3

For orientation: IC50 means the concentration that inhibits the measured activity by half. Usually melting point stands for the temperature, or range, at which the solid turns liquid. `CC1=NN(C(=O)CN2CCN(c3cc4c(cc3F)c(=O)c(C(=O)O)cn4C3CC3)CC2)C(=O)C1` [Compound 3, 1-cyclopropyl-6-fluoro-7-(4-(2-(3-methyl-5-oxo-4,5-dihydro-1H-pyrazol-1-yl)-2-oxoethyl)piperazin-1-yl)-4-oxo-1,4-dihydroquinoline-3-carboxylic acid] had a melting point of 188 to 190 °C. For the same compound, the half-inhibitory concentration (IC50) in data set [1] was 37.3 ± 2.02 µM. The IC50 in data set [2] was determined as 98.2 ± 5 µM.

Turning to `N=C1CC(=O)NN1C(=O)CN1CCN(c2cc3c(cc2F)c(=O)c(C(=O)O)cn3C2CC2)CC1` [Compound 4, 1-cyclopropyl-6-fluoro-7-(4-(2-(5-imino-3-oxopyrazolidin-1-yl)-2-oxoethyl)piperazin-1-yl)-4-oxo-1,4-dihydroquinoline-3-carboxylic acid], the melting point fell in the range of 181 to 183 °C. For the same compound, the IC50 in data set [1] stood at 25.5 ± 1.38 µM. Besides, the IC50 in data set [2] came out at 29.9 ± 1.53 µM.

Take `Cc1cc(C)n(C(=O)CN2CCN(c3cc4c(cc3F)c(=O)c(C(=O)O)cn4C3CC3)CC2)n1` [Compound 5, 1-cyclopropyl-7-(4-(2-(3,5-dimethyl-1H-pyrazol-1-yl)-2-oxoethyl)piperazin-1-yl)-6-fluoro-4-oxo-1,4-dihydro-quinoline-3-carboxylic acid]: the concentration for half-maximal inhibition (IC50) in data set [1] stood at 25.9 ± 1.39 µM; in data set [2], 24.9 ± 1.26 µM.

Consider `CC(=NNC(=O)CN1CCN(c2cc3c(cc2F)c(=O)c(C(=O)O)cn3C2CC2)CC1)c1ccc(N)cc1` [Compound 7c, 7-(4-(2-(2-(1-(4-Aminophenyl)ethylidene)hydrazinyl)-2-oxoethyl)-piperazin-1-yl)-1-cyclopropyl-6-fluoro-4-oxo-1,4-dihydroquinoline-3-carboxylic acid], for which the melting point lay in the range of 173 to 175 °C. For the same compound, the IC50 in data set [1] turned out to be 25.6 ± 0.71 µM. Besides, the IC50 in data set [2] amounted to 32.8 ± 0.86 µM.

Consider `CC(=NNC(=O)CN1CCN(c2cc3c(cc2F)c(=O)c(C(=O)O)cn3C2CC2)CC1)c1ccccc1O` [Compound 7d, 1-Cyclopropyl-6-fluoro-7-(4-(2-(2-(1-(2-hydroxyphenyl)ethylidene)hydrazinyl)-2-oxoethyl)piperazin-1-yl)-4-oxo-1,4-dihydroquinoline-3-carboxylic acid], for which the melting point was 166 to 168 °C. The half-maximal inhibitory concentration (IC50) in data set [1] was found to be 88 ± 4.75 µM. Moreover, the IC50 in data set [2] turned out to be 8.81 ± 0.44 µM.

`CC(=NNC(=O)CN1CCN(c2cc3c(cc2F)c(=O)c(C(=O)O)cn3C2CC2)CC1)c1cccs1` [Compound 7e, 1-Cyclopropyl-6-fluoro-4-oxo-7-(4-(2-oxo-2-(2-(1-(thiophen-2-yl)ethylidene)hydrazinyl)ethyl)piperazin-1-yl)-1,4-dihydroquinoline-3-carboxylic acid] gave a melting point of 245 to 247 °C. Besides, the 50% inhibitory concentration (IC50) in data set [1] is 25 ± 0.2 µM. Also, the half-inhibitory concentration (IC50) in data set [2] was found to be 50.5 ± 10.4 µM.

Take `CC(=NNC(=O)CN1CCN(c2cc3c(cc2F)c(=O)c(C(=O)O)cn3C2CC2)CC1)c1ccc(Cl)s1` [Compound 7f, 7-(4-(2-(2-(1-(5-Chlorothiophen-2-yl)ethylidene)hydrazinyl)-2-oxoethyl)piperazin-1-yl)-1-cyclopropyl-6-fluoro-4-oxo-1,4-dihydro-quinoline-3-carboxylic acid]: the melting point was in the range of 286 to 288 °C. Besides, in data set [1], the concentration for half-maximal inhibition (IC50) is 124 ± 6.7 µM. The half-maximal inhibitory concentration (IC50) in data set [2] stood at 136 ± 6.94 µM.

In turn, `O=C(CN1CCN(c2cc3c(cc2F)c(=O)c(C(=O)O)cn3C2CC2)CC1)NN=C1C(=O)Nc2cccc(Br)c21` [Compound 8b, 7-(4-(2-(2-(4-Bromo-2-oxoindolin-3-ylidene)hydrazinyl)-2-oxoethyl)piperazin-1-yl)-1-cyclopropyl-6-fluoro-4-oxo-1,4-dihydro-quinoline-3-carboxylic acid] came in with a melting point of 263 to 265 °C. In addition, in data set [1], the IC50 was determined as 336 ± 18.1 µM. Further, in data set [2], the IC50 was determined as 41.1 ± 2.09 µM.

Consider `Cc1cccc(Cl)c1NC(=O)NNC(=O)CN1CCN(c2cc3c(cc2F)c(=O)c(C(=O)O)cn3C2CC2)CC1` [Compound 9b, 7-(4-(2-(2-((2-Chloro-6-methylphenyl)carbamoyl)hydrazinyl)-2-oxoethyl)piperazin-1-yl)-1-cyclopropyl-6-fluoro-4-oxo-1,4-dihydro-quinoline-3-carboxylic acid], for which the melting point was in the range of 285 to 287 °C. In addition, the IC50 in data set [1] is 28.6 ± 1.54 µM. Also, the concentration for half-maximal inhibition (IC50) in data set [2] was 19.3 ± 0.98 µM.

In the case of `COc1ccc(NC(=S)NNC(=O)CN2CCN(c3cc4c(cc3F)c(=O)c(C(=O)O)cn4C3CC3)CC2)cc1` [Compound 9c, 1-Cyclopropyl-6-fluoro-7-(4-(2-(2-((4-methoxyphenyl)carbamo-thioyl)hydrazinyl)-2-oxoethyl)piperazin-1-yl)-4-oxo-1,4-dihydroquinoline-3-carboxylic acid], the melting point was 238 to 240 °C. The IC50 in data set [1] worked out at 134 ± 7.23 µM. In addition, the IC50 in data set [2] was determined as 4.85 ± 0.27 µM.

As to `O=C(CN1CCN(c2cc3c(cc2F)c(=O)c(C(=O)O)cn3C2CC2)CC1)NNCC(=O)c1ccccc1` [Compound 10a, 1-Cyclopropyl-6-fluoro-4-oxo-7-(4-(2-oxo-2-(2-(2-oxo-2-phenyl-ethyl)hydrazinyl)ethyl)piperazin-1-yl)-1,4-dihydroquinoline-3-carboxylic acid], the melting point lay in the range of 183 to 185 °C. For the same compound, the 50% inhibitory concentration (IC50) in data set [1] was found to be 45.4 ± 2.45 µM. Further, the concentration for half-maximal inhibition (IC50) in data set [2] was 74.3 ± 3.78 µM.

For `O=C(CN1CCN(c2cc3c(cc2F)c(=O)c(C(=O)O)cn3C2CC2)CC1)NNCC(=O)c1cccc(Br)c1` [Compound 10b, 7-(4-(2-(2-(2-(3-Bromophenyl)-2-oxoethyl)hydrazinyl)-2-oxo-ethyl)piperazin-1-yl)-1-cyclopropyl-6-fluoro-4-oxo-1,4-dihydroquinoline-3-carboxylic acid], the melting point is 210 to 215 °C. The IC50 in data set [1] was 17.2 ± 0.93 µM. The half-inhibitory concentration (IC50) in data set [2] worked out at 3.38 ± 0.18 µM.

For the compound `O=C(CN1CCN(c2cc3c(cc2F)c(=O)c(C(=O)O)cn3C2CC2)CC1)NN1C(=O)CCC1=O` [Compound 11, 1-cyclopropyl-7-(4-(2-((2,5-dioxopyrrolidin-1-yl)amino)-2-oxoethyl)piperazin-1-yl)-6-fluoro-4-oxo-1,4-dihydroquinoline-3-carboxylic acid], the melting point lay within 184 to 186 °C. Moreover, the IC50 in data set [1] came to 68.5 ± 3.69 µM. In data set [2], the IC50 stood at 82.2 ± 4.18 µM.

`O=C(CN1CCN(c2cc3c(cc2F)c(=O)c(C(=O)O)cn3C2CC2)CC1)NN1C(=O)c2ccccc2C1=O` [Compound 12, 1-cyclopropyl-7-(4-(2-((1,3-dioxoisoindolin-2-yl)amino)-2-oxoethyl)piperazin-1-yl)-6-fluoro-4-oxo-1,4-dihydroquinoline-3-carboxylic acid] had a melting point of 190 to 192 °C. Also, in data set [1], the IC50 is 47 ± 1.09 µM. The half-maximal inhibitory concentration (IC50) in data set [2] was found to be 126 ± 6.39 µM.

Take `NC(=S)NNC(=O)CN1CCN(c2cc3c(cc2F)c(=O)c(C(=O)O)cn3C2CC2)CC1` [Compound 13, 7-(4-(2-(2-carbamothioylhydrazinyl)-2-oxoethyl)piperazin-1-yl)-1-cyclopropyl-6-fluoro-4-oxo-1,4-dihydroquinoline-3-carboxylic acid]: the melting point lay within 188 to 200 °C. For the same compound, the concentration for half-maximal inhibition (IC50) in data set [1] came out at 34.5 ± 1.86 µM. The IC50 in data set [2] turned out to be 30.5 ± 1.56 µM.
